Data set [1] concerns cervical cancer cell line (HELA). The data set is described as follows: Cytotoxicity assay (CellTiter 96 AQueous One Solution, 72 h). Format: cell-based, human. The settings on record: EC50 in HEK293 over EC50 in HELA. As for the experimental part: (§1) In vitro cell viability with cultured cells is a method commonly used for cytotoxicity activities of potential anticancer compounds due to reduced cost speed, and potential for automation, and tests using human cells other than some in vivo animal tests. […] The cytotoxicity assay was conducted as per the standard method and as described by Abrahams et al. 2018 [111]. […] The plate was then incubated for 72 h at 37 °C and 5% CO2. To each well, 20 µL CellTiter 96 AQueous One Solution (Promega, Madison, WI, USA) was added and the plates were incubated for 4 h as previously described. Thereafter, absorbance was read at 490 nm on a multiplate reader (Molecular Devices, San Jose, CA, USA). […] The values recorded are averages of at least three separate experiments (n = 3).

Data set [2] concerns neuronal cancer cell line (SHSY5Y). Described as above. Format: cell-based, human. The settings on record: EC50 in HEK293 over EC50 in SHSY5Y. As for the experimental part:
as §1

Data set [3] concerns breast cancer cell line (MDA-MB231). The description is as above. The settings on record: EC50 in HEK293 over EC50 in MDA-MB231. Format: cell-based, human. As for the experimental part:
as §1

Data set [4] deals with Staphylococcus aureus ATCC 25923. The data set is described as follows: Minimum inhibitory concentration (MIC), spotting on Müeller–Hinton agar. The class given is cell-based. The settings on record: Gram + Ve; S. aureus; 37 °C, 18 h.
Data set [5] concerns Salmonella typhimurium ATCC 14026. The description is as above. Format: cell-based. The following applies: Gram − Ve; S. typhi; 37 °C, 18 h.
Data set [6] concerns Staphylococcus aureus ATCC 700699 (methicillin-resistant). The description is as above. Format: cell-based. The following applies: Gram + Ve; methicillin-resistant S. aureus; 37 °C, 18 h.
The test system of data set [7] is Escherichia coli ATCC 25922. The description is as above. The class given is cell-based. The following applies: Gram − Ve; E. coli; 37 °C, 18 h.
For data set [8], the target named is bovine serum albumin (BSA) (Bos taurus, UniProt P02769). Nature of the data set: Albumin binding by absorption spectroscopy titration.
Data set [9] relates to CT-DNA-EB adduct. Nature of the data set: Fluorescence competitive displacement of ethidium bromide from CT-DNA. Format: binding, calf. The settings on record: for CT-DNA-EB-Complex Ksv (M^−1) × 10^4: Stern–Volmer quenching constant, EB displacement, 25 °C; for CT-DNA-EB-Complex Kq (M^−1S^−1) × 10^12: bimolecular quenching constant, Ksv = Kqτo, τo 10^−8 s; for CT-DNA-EB-Complex Kbin (M^−1) × 10^5: binding constant from double-logarithmic plot. In outline:
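CT-DNA (15 µM) was pre-equilibrated 30 min with ethidium bromide (15 µM) in phosphate buffer pH 7.2, then titrated with complexes (0–20 µM) at 8-min intervals at room temperature. EB emission was recorded at 530–700 nm (excitation 525 nm, 25 °C), and quenching was analysed by Stern–Volmer to give Ksv and Kq (τo taken as 10^−8 s).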

Sequence of bovine serum albumin (BSA) (P02769 25-607): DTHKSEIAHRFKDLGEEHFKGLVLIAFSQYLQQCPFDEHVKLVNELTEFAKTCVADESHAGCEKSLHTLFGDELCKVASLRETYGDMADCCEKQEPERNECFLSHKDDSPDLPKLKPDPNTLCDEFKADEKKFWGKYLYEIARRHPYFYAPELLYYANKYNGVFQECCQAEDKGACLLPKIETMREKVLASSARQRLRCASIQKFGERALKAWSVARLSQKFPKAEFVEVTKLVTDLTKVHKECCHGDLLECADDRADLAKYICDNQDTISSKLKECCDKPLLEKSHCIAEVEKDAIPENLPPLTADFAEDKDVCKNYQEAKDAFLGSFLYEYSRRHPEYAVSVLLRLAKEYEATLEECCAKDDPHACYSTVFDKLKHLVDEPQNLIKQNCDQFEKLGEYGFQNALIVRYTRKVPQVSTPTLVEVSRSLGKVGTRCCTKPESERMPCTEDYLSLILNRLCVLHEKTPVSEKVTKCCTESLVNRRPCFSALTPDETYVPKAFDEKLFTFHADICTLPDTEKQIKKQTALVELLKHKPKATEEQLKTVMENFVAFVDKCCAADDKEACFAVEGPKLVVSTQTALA

On to `[Ag+].[O-][Cl+3]([O-])([O-])[O-].c1ccc2nc(-c3nc4ccccc4s3)ccc2c1.c1ccc2nc(-c3nc4ccccc4s3)ccc2c1` [Complex Q7, [Ag(L2)2]ClO4], for which the “Selectivity Index (SI) HELA” value in data set [1] was 4.39. In addition, in data set [2], the “Selectivity Index (SI) SHSY5Y” value was found to be 3.30. Further, the “Selectivity Index (SI) MDA-MB231” value in data set [3] is reported as 2.40. Moreover, the “Minimum inhibitory concentration, SA” value in data set [4] came to 1.6 µg/mL. Further, in [5], the “Minimum inhibitory concentration, ST” value is recorded as 50 µg/mL. The “Minimum inhibitory concentration, MRSA” value in data set [6] amounted to 50 µg/mL. Besides, the “Minimum inhibitory concentration, EC” value in [7] came to 25 µg/mL. Further, the “Protein-Complex Kb (M^−1) × 10^4” value in [8] is 9.38 (M^−1) × 10^4. In addition, in [9], the “CT-DNA-EB-Complex Ksv (M^−1) × 10^4” value is 3.96 (M^−1) × 10^4, the “CT-DNA-EB-Complex Kq (M^−1S^−1) × 10^12” value was 3.96 (M^−1S^−1) × 10^12 and the “CT-DNA-EB-Complex Kbin (M^−1) × 10^5” value is on record as 1.29 (M^−1) × 10^5.
Regarding `Cc1ccc(N=Cc2ccc3ccccc3n2)cc1.Cc1ccc(N=Cc2ccc3ccccc3n2)cc1.[Ag+].[O-][Cl+3]([O-])([O-])[O-]` [Complex Q9, [Ag(L4)2]ClO4], in data set [1], the “Selectivity Index (SI) HELA” value amounted to 4.48. Moreover, the “Selectivity Index (SI) SHSY5Y” value in data set [2] was 2.12. Besides, in data set [3], the “Selectivity Index (SI) MDA-MB231” value came out at 2.57. Moreover, the “Minimum inhibitory concentration, SA” value in data set [4] is recorded as 50 µg/mL. Moreover, in data set [5], the “Minimum inhibitory concentration, ST” value is 50 µg/mL. For the same molecule, in data set [6], the “Minimum inhibitory concentration, MRSA” value is listed as 1000 µg/mL. The “Minimum inhibitory concentration, EC” value in [7] turned out to be 12.5 µg/mL. Besides, the “Protein-Complex Kb (M^−1) × 10^4” value in data set [8] was 5.43 (M^−1) × 10^4. In addition, in [9], the “CT-DNA-EB-Complex Ksv (M^−1) × 10^4” value was 2.49 (M^−1) × 10^4, the “CT-DNA-EB-Complex Kq (M^−1S^−1) × 10^12” value is 2.49 (M^−1S^−1) × 10^12 and the “CT-DNA-EB-Complex Kbin (M^−1) × 10^5” value is listed as 6.53 (M^−1) × 10^5.

(Values after article PMC7956476, “Quinoline Functionalized Schiff Base Silver (I) Complexes: Interactions with Biomolecules and In Vitro Cytotoxicity, Antioxidant and Antimicrobial Activities” (Molecules, 2021).)
